In ChEMBL document CHEMBL1201862, “PubChem BioAssay data set” (2004):
Structures can show the parent of a compound that is named as a salt. The source made the active and inactive calls. Cut-off read from the data, not from the text of the source, for most assays here: actives have a measured EC50 and inactives only a lower limit.

What was measured:
[1] = target: T1, Heat shock factor protein 1 (Mus musculus, UniProt P38532); experiment: decrease of HSF1-responsive luciferase luminescence – cell-based, NIH3T3, dose retest, confirmation (AID 2382); assay type: functional;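 note: NIH3T3 fibroblasts with HSF1-driven luciferase reporter stressed by proteasome inhibitor MG132; luminescence from HSF1-driven luciferase expression after 8 hours of MG132 stress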
T1 sequence (P38532 whole entry): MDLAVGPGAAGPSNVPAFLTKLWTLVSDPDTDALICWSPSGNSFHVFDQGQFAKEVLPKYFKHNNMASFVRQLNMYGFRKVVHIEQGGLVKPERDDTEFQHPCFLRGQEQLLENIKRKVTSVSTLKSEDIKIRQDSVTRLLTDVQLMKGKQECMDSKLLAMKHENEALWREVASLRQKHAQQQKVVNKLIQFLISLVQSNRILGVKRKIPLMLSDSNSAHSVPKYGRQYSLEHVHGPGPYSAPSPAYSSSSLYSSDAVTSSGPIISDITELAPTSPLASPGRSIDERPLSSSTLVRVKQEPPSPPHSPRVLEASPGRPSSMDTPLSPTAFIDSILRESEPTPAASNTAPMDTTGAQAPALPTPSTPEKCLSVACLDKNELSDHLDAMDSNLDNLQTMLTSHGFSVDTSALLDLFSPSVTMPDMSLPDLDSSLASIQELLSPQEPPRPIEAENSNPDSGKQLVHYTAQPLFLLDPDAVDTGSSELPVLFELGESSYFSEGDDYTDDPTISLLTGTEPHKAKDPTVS

[2] = NIH-3T3 fibroblast cytotoxicity, dose response, cytotoxicity control, cell-based, fluorescence, Alamar Blue, secondary assay (AID 2327); assay type: functional;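 note: NIH-3T3 mouse fibroblasts cultured with fluconazole at 8 µg/mL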
[3] = fluconazole-exposed Candida albicans growth modulators – fluorescence, retest, confirmation (AID 2467); assay type: functional, cell-based
[4] = Luminescence Cell-Based Dose Retest to Confirm Inhibitors of Cancer Stem Cells. [Related pubchem assays (depositor defined):AID2717, AID2721]; assay type: functional; details: Homo sapiens
[5] = NIH3T3 cell viability loss – ATP luminescence, mouse fibroblasts, counter-screen, dose response (AID 2010); assay type: functional, cell-based;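 note: cells exposed to compound for about 90 hours before reading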
[6] = Trypanosoma cruzi growth suppression in host cells – NIH3T3 host cells, beta-gal luminescence, confirmation (AID 2044); assay type: functional, cell-based;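 note: intracellular parasites grown in NIH/3T3 mouse fibroblasts as host cells; luminescent beta-galactosidase reporter signal from transgenic T. cruzi replicating inside host cells; inhibitors lower the luminescence signal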
[7] = viability of uninfected HEp-2 cells – cell-based, HTS, cytotoxicity control for RSV inhibitor project, dose response (AID 2410); assay type: functional; details: human respiratory syncytial virus
[8] = tested on: Streptococcus sp. 'group A'; experiment: Streptococcus pyogenes SK(-)GAS viability under kanamycin – luminescence, BacTiterGlo, confirmation, counter-screen for streptokinase expression inhibitor project, dose response (AID 1900); assay type: functional, organism-based
Streptococcus = experiment: GAS UMAA2166 growth inhibition – luminescence, BacTiterGlo, counter-screen for streptokinase expression inhibitor project, dose response (AID 1915); assay type: functional, organism-based;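 note: potency for reduction of bacterial viability or growth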
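Throughout, for AC50: cells exposed to compound for roughly 70 hours or longer before luminescence read.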

With `O=C(NC1CCCCC1)C1CCN(c2nccs2)CC1` the EC50 [1] was > 195 µM (not active).

In the case of `CCN=C(S)NNC(=O)c1cc(-c2cccc(C)c2)nc2ccccc12`, the EC50 [2] is reported as 20.2 µM (inconclusive) and the EC50 [3] is reported as 2.5 µM (active).

With `Cc1cc(C)c2nc(O)c(CN(Cc3cccs3)C(S)=NCc3ccco3)cc2c1` the AC50 [4] was 61.4 µM (active).

In the case of `CCC(=O)N1CCN(c2cc(N3CCN(C)CC3)c(F)cc2[N+](=O)[O-])CC1`, the EC50 [5] is reported as > 60 µM (not active) and the EC50 [6] is reported as 0.765 µM (active).

With `CC(=O)Oc1c(Cl)cc(Cl)cc1/C=C/c1ccc2ccccc2n1` the AC50 [4] was 1.81 µM (active).

In the case of `O=C(c1ccc(C(=O)N2CCN(c3ccccc3F)CC2)nc1)N1CCN(c2ccccc2F)CC1`, the EC50 [2] is reported as > 160 µM (inactive) and the EC50 [3] is reported as > 38 µM (not active).

For `CCCCC1SC(N/N=C/c2ccco2)=NC1=O` (stereo unspecified), the EC50 [2] was > 150 µM (inactive) and the EC50 [3] was 5.08 µM (active).

With `c1ccc2c(c1)OCC(c1csc3ncnc(N4CCCCC4)c13)O2` (stereo unspecified) the CC50 [7] was 16.8 µM (active).

With `O=C(O)/C=C\C(=O)Nc1ccc(OCc2ccccc2)cc1` the EC50 [1] was 31 µM (active).

For `CC(=S)/C=C1\Sc2ccccc2N1C`, the EC50 [2] was > 150 µM (inactive), the EC50 [5] was > 60 µM (not active) and the EC50 [6] was 0.739 µM (active). The EC50 [3] was 1.9 µM (active).

In the case of `O=C(c1ccc([N+](=O)[O-])s1)N1CCN(c2ccccc2)CC1`, the EC50 [5] is reported as > 60 µM (not active) and the EC50 [6] is reported as 0.808 µM (active).

With `COc1ccccc1-n1c(O)cc(=O)nc1SCC(=O)Nc1ccc(Br)cc1` the EC50 [8] was 6.68 µM (active) and the EC50 (Streptococcus) was 22.6 µM (active).

For `Cc1nn(CC(=O)NCCCc2ccccc2)c(C)c1[N+](=O)[O-]`, the EC50 [2] was > 150 µM (inactive).

With `Cc1[nH]n(-c2cccc3ccccc23)c(=O)c1/C=N/NC(=O)c1cccc([N+](=O)[O-])c1` the EC50 [2] was 12.1 µM (active), the EC50 [8] was 2.98 µM (active) and the EC50 [3] was > 38 µM (not active). The EC50 (Streptococcus) was 7.09 µM (active).

For `CO/N=C/c1ccc(N2CCN(C(=O)c3ccc(C)cc3)CC2)c([N+](=O)[O-])c1`, the EC50 [2] was > 160 µM (inactive) and the EC50 [3] was > 38 µM (not active).

With `COC(=O)c1cc(=O)n(Cc2cccs2)/c(=N/c2ccc(F)cc2)s1` the AC50 [4] was 3.81 µM (active).

With `COc1ccc(Br)c2oc(SC)cc(=O)c12` the CC50 [7] was > 50 µM (active).

In the case of `Cc1nn(-c2ccccc2)c(Cl)c1/C=C1\C(=O)N(C)C(=S)N1C`, the CC50 [7] is reported as 26.6 µM (active).

With `COC(=O)c1c(C)nc(O)nc1SCc1cccc2ccccc12` the CC50 [7] was > 50 µM (active).

For `CNC(=O)c1ccc2c(c1)nnn2C`, the EC50 [2] was 58.7 µM (active) and the EC50 [3] was > 38 µM (not active).

With `C/C(=N\NC(=O)c1nn(C)c(C)c1Br)c1ccc(NC(=O)C2CCCC2)cc1` the EC50 [2] was 34.4 µM (active) and the EC50 [3] was > 38 µM (not active).

For `Cc1cc(NC(=O)CSc2nnc(C)n2C)no1`, the EC50 [1] was > 195 µM (not active).

In the case of `NC(=O)c1c(NC(=O)c2ccncc2)sc2c1CCCC2`, the EC50 [2] is reported as > 150 µM (inactive) and the EC50 [3] is reported as 2.12 µM (active).

In the case of `O=C(NCc1ccccc1)C1CCCN(S(=O)(=O)c2cccc3nsnc23)C1` (stereo unspecified), the EC50 [1] is reported as > 195 µM (not active).

For `O=C(NC(=S)NCCc1ccccc1)C1CCCCC1`, the AC50 [4] was 10.6 µM (active).

With `Cc1ccc(/C=N/NC2=NC(=O)CS2)o1` the CC50 [7] was 21.5 µM (active).

In the case of `Cc1ccc(/C=C/C(=O)NCCc2ccccc2)o1`, the AC50 [4] is reported as > 195 µM (inactive).

In the case of `CCN(CC)CCOC(=O)c1ccc(N)cc1` [PROCAINE HYDROCHLORIDE], the EC50 [1] is reported as > 195 µM (not active).

In the case of `CC(Oc1ccc(Br)cc1)C(=O)NC1CCN(Cc2ccccc2)CC1` (stereo unspecified), the EC50 [5] is reported as > 60 µM (not active) and the EC50 [6] is reported as 0.579 µM (active).

In the case of `COc1ccc(C2NC(S)=NC3=C2CCc2cc(OC)ccc23)cc1` (stereo unspecified), the CC50 [7] is reported as 26.4 µM (active).

In the case of `O=C(NCc1ccccc1)N1CCC(CO)(Cc2cccc(F)c2)CC1`, the EC50 [1] is reported as > 195 µM (not active).

For `Cc1nc2ccccc2c(N)c1C(=O)/C=C/c1ccccc1`, the CC50 [7] was 9.1 µM (active).

For `CCOC(=O)C(O)(c1ccc(NC(=O)c2ccc(Cl)c(Cl)c2)cc1)C(F)(F)F` (stereo unspecified), the CC50 [7] was 20.9 µM (active).

In the case of `COc1cccc(-c2ccc(SCC(=O)c3ccccc3)nn2)c1`, the CC50 [7] is reported as 35.2 µM (active).
